Results reported in patent publication US7910588B2, “5-HT7 receptor antagonists” (Eli Lilly and Company, priority 2007, dated 2011).
Where “and” joins values, the source holds several entries; their conditions need not be identical. Equal values may be shown once.

Legend:
5-HT7 receptor = biological target: T1, 5-HT7 receptor (Homo sapiens, UniProt P34969); test: 5-HT7 receptor affinity: [3H]5-HT radioligand binding assay; conditions: membranes of AV-12 cells, 1 nM [3H]5-HT
T1 construct: expressed in transfected cells
T1 sequence (P34969 whole entry): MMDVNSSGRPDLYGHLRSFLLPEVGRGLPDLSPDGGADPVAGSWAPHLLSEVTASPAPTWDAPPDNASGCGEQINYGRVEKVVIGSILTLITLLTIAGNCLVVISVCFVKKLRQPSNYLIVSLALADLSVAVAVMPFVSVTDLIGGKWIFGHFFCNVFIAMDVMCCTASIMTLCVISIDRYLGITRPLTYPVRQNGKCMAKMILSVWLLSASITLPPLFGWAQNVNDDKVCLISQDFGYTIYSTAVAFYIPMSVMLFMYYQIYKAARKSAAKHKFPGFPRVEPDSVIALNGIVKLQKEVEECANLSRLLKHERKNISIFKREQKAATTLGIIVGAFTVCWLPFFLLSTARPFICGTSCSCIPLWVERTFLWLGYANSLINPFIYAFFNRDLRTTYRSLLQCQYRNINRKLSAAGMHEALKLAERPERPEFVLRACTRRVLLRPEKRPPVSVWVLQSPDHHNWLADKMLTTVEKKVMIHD
Protocol: Membranes for affinity and antagonist activity assays are prepared essentially as follows. AV-12 cells, stably expressing the 5-HT7 receptor, are grown as a monolayer in 5×T-150 flasks in DMEM/F12 (3:1) 5% FBS, 20 mM HEPES, […] geneticin, 50 mg/mL tobramycin. After growing to 90% confluence the media is removed and replaced with Hybritech media containing 2% horse serum, […] dextran sulfate, 1 mg/mL nucellin, 1 mg/mL human transferrin (partially iron saturated), 50 mg/mL tobramycin, 20 mM HEPES, […] geneticin, 0.04% pluronic F68. […]
To prepare membranes, the above pellets are resuspended in ice-cold Tris buffer (20 mM Tris HCl, pH 7.4 at 23° C., 5 mM EDTA) and homogenized with a Wheaton tissue grinder. […] Protein concentrations are determined by the method of Bradford. […]

[1] = tested on: dural plasma protein extravasation; test: Animal model of dural plasma protein extravasation (PPE); type: in vivo; conditions: rat
Text: The dural plasma protein extravasation model is an established model for migraine. The ability of a test compound to reduce extravasation of plasma proteins into the dura under assay conditions is considered indicative of the compound's ability to reduce or prevent the dural inflammation thought to be symptomatic of migraine. (see Johnson, K. W., et al., Neuroreport, 8 (1997) 2237-2240.)
To assay compounds for their ability to reduce or prevent dural plasma protein extravasation, male Harlan Sprague-Dawley rats (250-350 g) are anesthetized with sodium pentobarbital (65 mg/kg, i.p.) and placed in a stereotaxic frame (David Kopf Instruments) with the incisor bar set at −2.5 mm. Following a midline sagital scalp incision, 2 pairs of bilateral holes are drilled through the skull (3.2 mm posterially, 1.8 and 3.8 mm laterally, all coordinates referenced to bregma). […]
The amount of FITC-BSA for each sample is quantified with a fluorescence microscope (Zeiss) equipped with a grating monochromator, a spectrophotometer, and a computer driven stage. Fluorescence measurements are taken at 25 points in a 5×5 grid in 500 μm steps on each dural sample with an excitation wavelength of approximately 490 nm and emission intensity measured at approximately 535 nm. The mean and standard deviation of the 25 measurements are determined. […]

CCn1ncc(CN2CCN(c3cccnc3N3CCC(O)CC3)CC2)c1C.Cl [Example 1, 3′-[4-(1-Ethyl-5-methyl-1H-pyrazol-4-ylmethyl)-piperazin-1-yl]-3,4,5,6-tetrahydro-2H-[1,2]bipyridinyl-4-ol hydrochloride]
Ki (5-HT7 receptor): ~16.2 nM and 16.2 nM
ratio of extravasation in the dura, stimulated side over unstimulated side ([1]; at 0.1 mg/Kg, saline control approximately 2.0, full prevention approximately 1.0): about 1.15
ID100 ([1]; electrical stimulation of trigeminal ganglion, route not stated for the result): 0.1 mg/kg
